The numbers were not newly measured in patent publication US20220287355A1, “ORAL PRODUCTS WITH SELF-EMULSIFYING SYSTEM” (NICOVENTURES TRADING LIMITED, priority 2021, published 2022), which cites them from elsewhere.

Experiment in data set [1]: not given
The source holds these as a separate data set.

For the compound `C=C(C)[C@@H]1CCC(C)=C[C@H]1c1c(O)cc(CCCCC)cc1O` [CBD, cannabidiol], the logP value result is reported as “about 6.5”. For the same compound, the “solubility in an aqueous environment (e.g., saliva)” value in data set [1] is “insoluble”.
